Measurements from US11369650B2, “Methods for reversing multiple resistance in animal cells” (priority 2004, dated 2022).

How the values were obtained:
U373 tumour cells [1] = experiment: Southern blot of dl520 replication after Trichostatin A; assay type: cell-based; conditions: U373, 0.25, 0.5 and 0.75 μM Trichostatin A, 10 pfu/cell dl520
Method: In order to test the effect of Trichostatin A on adenoviral replication, 10^6 U373 tumour cells were plated in 10 cm^2 Petri dishes. After 24 hours 0.25, 0.5 and 0.75 μM Trichostatin A was added. After another 24 hours the cells were infected with 10 pfu/cell dl520.
After 3 days of incubation in medium without Trichostatin DNA was isolated. Subsequently 2 μg DNA were digested with restriction enzyme Kpn I and a Southern Blot analysis performed. A part of the adenoviral genome (position: 22734-24235) generated by means of PCR was used as a probe.

[2] = tested on: Coxsackievirus-adenovirus-receptor (CAR) on U373 cells; experiment: FACS analysis of CAR expression; assay type: cell-based; conditions: U373, 1 μM Trichostatin, 24 hours
Method: 200,000 U373 cells were plated in 6 well plates. After 24 hours the cells were cultivated with 1 μM Trichostatin for 24 hours. After another 24 hours the cells were isolated. Subsequently, analysis of CAR expression was performed according to a standard protocol using Facs-analysis and the primary antibody anti-CAR clone RmcB from the company Upstate, and a rabbit-anti-mouse FITC as secondary antibody (company DAKO).

U2OS cells = experiment: Oncolytic assay with daunorubicine and dl520, crystal violet; assay type: cell-based, human; conditions: 40 ng/ml
Method: (§1) In the practising of the oncolytic assays the following procedure was followed: 200,000 cells (HeLa and U2OS, respectively) were plated into each well of a 6 well plate. On the next day 40 ng/ml (final concentration) of daunorubicine were added. After 3 hours of incubation the cells were infected with 10 and 30 pfu dl520/cell, respectively. Subsequently, the cells were incubated in cytostatic free medium. After 3-5 days the cells were stained using crystal violet.

HeLa cells = experiment: as above; assay type: cell-based; conditions: 40 ng/ml
Method: as §1

U373 cells = experiment: Oncolysis of U373 cells by dl520 with Irinotecan and Trichostatin A, crystal violet; assay type: cell-based; conditions: U373, 2 μM Irinotecan
Method: 200,000 U373 cells were plated in a 6 well plate. After 24 hours either 2 μM Irinotecan or only 1 μM Trichostatin A or 1 μM Irinotecan+0.5 μM Trichostatin were added to the medium. After 24 hours of incubation the cells were infected with 10, 20 and 30 pfu/cell dl520. After 3-5 days the analysis was performed using crystal violet staining. The assays were performed in duplicate.
The further 6 well plates 2, 3 and 4 depicted in FIG. 22, herein also referred to as panels 2, 3 and 4, were basically treated in accordance with this scheme. The individual wells were inoculated with U373 cells as previously described and the cells cultivated therein. The wells were inoculated with 10, 20 or 30 pfu/cell dl520 in duplicate, whereby the difference between the three 6 well plates resided in the kind of cytostatics used. In panel 2 2 μM Irinotecan, in panel 3 […] and in panel 4 1 μM Irinotecan and 0.5 μM Trichostatin A was added to the individual plates.

U373 tumour cells [3] = experiment: Southern blot of dl520 replication after Irinotecan; assay type: cell-based; conditions: U373, 5 μM Irinotecan 24 h before 10 pfu/cell dl520
Method: In order to determine the effect of Irinotecan on adenoviral replication 10^6 U373 tumour cells were plated in 10 cm^2 Petri dishes. In a first reaction 5 μM Irinotecan was added after 24 hours. After another 24 hours the cells were infected with 10 pfu/cell dl520. After incubation of 3 days without Irinotecan DNA was isolated in accordance with the procedure described in example 10.
In a parallel reaction the thus prepared U373-cells were not pre-incubated with Irinotecan. After 48 hours of cultivating the cells without Irinotecan, they were infected with 10 pfu/cell dl520 and subsequently incubated without Irinotecan for another 3 days. DNA was isolated as described above.
Subsequently […] were digested with restriction enzyme Kpn I and a Southern Blot analysis performed. A part of the adenoviral genome (position: 22734-24235) generated by means of PCR was used as a probe.

CC(/C=C/C(=O)NO)=C\[C@@H](C)C(=O)c1ccc(N(C)C)cc1 [Trichostatin A]
viral (dl520) replication compared to untreated controls (U373 tumour cells [1]): significantly increased
CAR-positive cells [2]: 56.2%

COc1cccc2c1C(=O)c1c(O)c3c(c(O)c1C2=O)C[C@@](O)(C(C)=O)C[C@@H]3O[C@H]1C[C@H](N)[C@H](O)[C@H](C)O1 [daunorubicine]
effect of daunorubicine on replication of dl520 (U2OS cells): induces the replication of dl520
effect of daunorubicine on replication of dl520 (HeLa cells): induces the replication of dl520

CCc1c2c(nc3ccc(OC(=O)N4CCC(N5CCCCC5)CC4)cc13)-c1cc3c(c(=O)n1C2)COC(=O)[C@]3(O)CC [Irinotecan]
dl520 titer at which the cells were lysed (U373 cells): 30 pfu/cell
adenoviral (dl520) replication compared to untreated control (U373 tumour cells [3]): significantly increased
